Experimental data published in US6063778A, “Cephalosporin derivatives and processes for the preparation thereof” (Il-Dong Pharm. Co., Ltd., priority 1995, dated 2000).
Converted amounts (≈) assume the structure as drawn. Read-outs that look alike come from different tables or passages of the source.

Assays:
Pseudomonas aeruginosa = test: MIC by agar dilution, comparison in words; format: cell-based; conditions: against Pseudomonas aeruginosa; vs Cefpirome
Procedure: (§1) These MIC values were determined by agar dilution method: that is, two-fold dilutions of each of the test compounds were made and dispersed in a Mueller-Hinton Broth medium. Standard test strain which had the 10^6 CFU per ml was inoculated on the medium, and was incubated at 37° C. for 18 to 20 hours.

Escherichia coli 078 = test: MIC by agar dilution, in vitro activity test; format: cell-based; conditions: 37° C., 18 to 20 hours, read-out: Minimal Inhibitory Concentration (MIC)
Procedure: as §1

[1] = system: Staphylococcus aureus 285; test: MIC by agar dilution, in vitro activity test; format: cell-based; conditions: 37° C., 18 to 20 hours, read-out: Minimal Inhibitory Concentration (MIC)
Procedure: as §1

[2] = system: Pseudomonas aeruginosa 1771M; test: MIC by agar dilution, in vitro activity test; format: cell-based; conditions: 20 h, read-out: Minimal Inhibitory Concentration (MIC)
Procedure: as §1

[3] = system: Staphylococcus aureus SG511; test: MIC by agar dilution, in vitro activity test; format: cell-based; conditions: 37° C., 18 to 20 hours, read-out: Minimal Inhibitory Concentration (MIC)
Procedure: as §1

[4] = system: Streptococcus pyogenes 71A; test: MIC by agar dilution, in vitro activity test; format: cell-based; conditions: 37° C., 18 to 20 hours, read-out: Minimal Inhibitory Concentration (MIC)
Procedure: as §1

Escherichia coli 1507E = test: MIC by agar dilution, in vitro activity test; format: cell-based; conditions: Escherichia coli 1507E; agar dilution, 37° C., 18 to 20 hours; read-out: Minimal Inhibitory Concentration (MIC)
Procedure: as §1

Escherichia coli TEM = test: MIC by agar dilution, in vitro activity test; format: cell-based; conditions: 20 h, read-out: Minimal Inhibitory Concentration (MIC)
Procedure: as §1

[5] = system: Streptococcus faecium MD 8b; test: MIC by agar dilution, in vitro activity test; format: cell-based; conditions: Enterococcus faecium, MD8B, 20 h, read-out: Minimal Inhibitory Concentration (MIC)
Procedure: as §1

[6] = system: Klebsiella aerogenes 1522E; test: MIC by agar dilution, in vitro activity test; format: cell-based; conditions: Klebsiella aerogenes 1522E; agar dilution, 37° C., 18 to 20 hours; read-out: Minimal Inhibitory Concentration (MIC)
Procedure: as §1

[7] = system: Enterobacter cloace 1321E; test: MIC by agar dilution, in vitro activity test; format: cell-based; conditions: 37° C., 18 to 20 hours, read-out: Minimal Inhibitory Concentration (MIC)
Procedure: as §1

Escherichia coli DC 2 = test: MIC by agar dilution, in vitro activity test; format: cell-based; conditions: DC2, 37° C., 18 to 20 hours, read-out: Minimal Inhibitory Concentration (MIC)
Procedure: as §1

[8] = system: Klebsiella aerogenes 1082E; test: MIC by agar dilution, in vitro activity test; format: cell-based; conditions: 37° C., 18 to 20 hours, read-out: Minimal Inhibitory Concentration (MIC)
Procedure: as §1

Enterobacter cloace P99 = test: MIC by agar dilution, in vitro activity test; format: cell-based; conditions: P99, 20 h, read-out: Minimal Inhibitory Concentration (MIC)
Procedure: as §1

[9] = system: Pseudomonas aeruginosa 9071; test: MIC by agar dilution, in vitro activity test; format: cell-based; conditions: 37° C., 18 to 20 hours, read-out: Minimal Inhibitory Concentration (MIC)
Procedure: as §1

Salmonella typhimurium = test: MIC by agar dilution, in vitro activity test; format: cell-based; conditions: Salmonella enterica, 37° C., 18 to 20 hours, read-out: Minimal Inhibitory Concentration (MIC)
Procedure: as §1

Escherichia coli DC 0 = test: MIC by agar dilution, in vitro activity test; format: cell-based; conditions: DC0, 37° C., 18 to 20 hours, read-out: Minimal Inhibitory Concentration (MIC)
Procedure: as §1

[10] = system: Pseudomonas aeruginosa 1592E; test: MIC by agar dilution, in vitro activity test; format: cell-based; conditions: 37° C., 18 to 20 hours, read-out: Minimal Inhibitory Concentration (MIC)
Procedure: as §1

[11] = system: Staphylococcus aureus 503; test: MIC by agar dilution, in vitro activity test; format: cell-based; conditions: 37° C., 18 to 20 hours, read-out: Minimal Inhibitory Concentration (MIC)
Procedure: as §1

[12] = system: Pseudomonas aeruginosa 1771; test: MIC by agar dilution, in vitro activity test; format: cell-based; conditions: 37° C., 18 to 20 hours, read-out: Minimal Inhibitory Concentration (MIC)
Procedure: These MIC values were determined by agar dilution method: that is, two-fold dilutions of each of the test compounds were made and dispersed in a Mueller-Hinton Broth medium.

Acute toxicity study = format: in vivo; conditions: mouse, in vivo
Procedure: In order to illustrate usefulness of the compounds of the present invention, acute toxicity test of the compounds synthesized in the above Examples were carried out. Each dose of the compounds dissolved in saline and buffer solution (PH=7.0) was administered by intravenous or subcutaneous injection. Mortalities of the animals was recorded seven days latter.
.asterisk-pseud. Mouse: Male ICR strain, 4 weeks

CC[N+](C)(CC=CC(N)=O)C/C=C/C1=C(C(=O)[O-])N2C(=O)[C@@H](NC(=O)/C(=N\OC)c3nsc(N)n3)[C@H]2SC1 (stereo partly drawn) [Example 13, 7β-[(Z)-2-(5-amino-1,2,4-thiadiazol-3-yl)-2-methoxyiminoacetamido]-3-[(E)-3-[(1-carbamoyl-1-propen-3-yl)-3-ethylmethylammonio]-1-propen-1-yl]3-cephem-4-carboxylate]
MICs compared with Cefpirome (Pseudomonas aeruginosa): superior to that of Cefpirome | MIC (Escherichia coli 078): 0.05 µg/mL (≈ 0.0886 µM) | MIC [1]: 0.8 µg/mL (≈ 1.42 µM) | MIC [2]: 0.4 µg/mL (≈ 0.708 µM) | MIC [3]: 0.8 µg/mL (≈ 1.42 µM) | MIC [4]: 0.025 µg/mL (≈ 0.0443 µM) | MIC (Escherichia coli 1507E): 0.1 µg/mL (≈ 0.177 µM) | MIC (Escherichia coli TEM): 0.05 µg/mL (≈ 0.0886 µM) | MIC [5]: > 100 µg/mL | MIC [6]: 0.2 µg/mL (≈ 0.354 µM) | MIC [7]: 0.05 µg/mL (≈ 0.0886 µM) | MIC (Escherichia coli DC 2): 0.2 µg/mL (≈ 0.354 µM) | MIC [8]: 3.1 µg/mL (≈ 5.49 µM) | MIC (Enterobacter cloace P99): 1.6 µg/mL (≈ 2.83 µM) | MIC [9]: 3.1 µg/mL (≈ 5.49 µM) | MIC (Salmonella typhimurium): 0.2 µg/mL (≈ 0.354 µM) | MIC (Escherichia coli DC 0): 0.025 µg/mL (≈ 0.0443 µM) | MIC [10]: 1.6 µg/mL (≈ 2.83 µM) | MIC [11]: 0.8 µg/mL (≈ 1.42 µM) | MIC [12]: 1.6 µg/mL (≈ 2.83 µM) | LD50 at 168 h (Acute toxicity study; iv, i.v, male ICR mouse, 4 weeks, mortality at seven days, read-out: LD50 i.v): > 2000 mg/kg | LD50 at 168 h (Acute toxicity study; iv, intravenous routes, read-out: acute toxicity in intravenous routes): > 2000 mg/kg | LD50 at 168 h (Acute toxicity study; sc, s.c, male ICR mouse, 4 weeks, mortality at seven days, read-out: LD50 s.c): > 3000 mg/kg
